± gives the expanded uncertainty stated by the source.
Experiment: relative permittivity at various frequencies (dimensionless); xn = mol fraction of the nth substance listed
Conditions: 101.3 kPa, Liquid, Frequency=1 MHz, Coaxial cylinder capacitor

CC#N [acetonitrile] + O
relative permittivity (288.15 K, x1 = 0.0465): 78.61 ± 0.35 | relative permittivity (288.15 K, x1 = 0.0988): 73.85 ± 0.33 | relative permittivity (288.15 K, x1 = 0.158): 68.68 ± 0.31 | relative permittivity (288.15 K, x1 = 0.226): 63.44 ± 0.29 | relative permittivity (288.15 K, x1 = 0.305): 58.11 ± 0.26 | relative permittivity (288.15 K, x1 = 0.397): 53.1 ± 0.24 | relative permittivity (288.15 K, x1 = 0.506): 48.72 ± 0.22 | relative permittivity (288.15 K, x1 = 0.637): 44.82 ± 0.2 | relative permittivity (288.15 K, x1 = 0.798): 41.05 ± 0.18 | relative permittivity (288.15 K, x1 = 1): 37.52 ± 0.17 | relative permittivity (293.15 K, x1 = 0.0465): 76.8 ± 0.34 | relative permittivity (293.15 K, x1 = 0.0988): 72.05 ± 0.32 | relative permittivity (293.15 K, x1 = 0.158): 67.21 ± 0.3 | relative permittivity (293.15 K, x1 = 0.226): 62 ± 0.27 | relative permittivity (293.15 K, x1 = 0.305): 56.92 ± 0.25 | relative permittivity (293.15 K, x1 = 0.397): 52.2 ± 0.22 | relative permittivity (293.15 K, x1 = 0.506): 47.77 ± 0.21 | relative permittivity (293.15 K, x1 = 0.637): 43.92 ± 0.19 | relative permittivity (293.15 K, x1 = 0.798): 40.39 ± 0.17 | relative permittivity (293.15 K, x1 = 1): 36.62 ± 0.16 | relative permittivity (298.15 K, x1 = 0.0465): 74.92 ± 0.33 | relative permittivity (298.15 K, x1 = 0.0988): 70.49 ± 0.31 | relative permittivity (298.15 K, x1 = 0.158): 65.57 ± 0.29 | relative permittivity (298.15 K, x1 = 0.226): 60.61 ± 0.27 | relative permittivity (298.15 K, x1 = 0.305): 55.69 ± 0.24 | relative permittivity (298.15 K, x1 = 0.397): 51.05 ± 0.22 | relative permittivity (298.15 K, x1 = 0.506): 46.83 ± 0.2 | relative permittivity (298.15 K, x1 = 0.637): 43.1 ± 0.19 | relative permittivity (298.15 K, x1 = 0.798): 39.41 ± 0.17 | relative permittivity (298.15 K, x1 = 1): 35.88 ± 0.16 | relative permittivity (303.15 K, x1 = 0.0465): 73.36 ± 0.32 | relative permittivity (303.15 K, x1 = 0.0988): 68.85 ± 0.3 | relative permittivity (303.15 K, x1 = 0.158): 64.22 ± 0.28 | relative permittivity (303.15 K, x1 = 0.226): 59.3 ± 0.26 | relative permittivity (303.15 K, x1 = 0.305): 54.58 ± 0.24 | relative permittivity (303.15 K, x1 = 0.397): 50.07 ± 0.22 | relative permittivity (303.15 K, x1 = 0.506): 45.89 ± 0.2 | relative permittivity (303.15 K, x1 = 0.637): 42.2 ± 0.18 | relative permittivity (303.15 K, x1 = 0.798): 38.67 ± 0.17 | relative permittivity (303.15 K, x1 = 1): 35.15 ± 0.15 | relative permittivity (308.15 K, x1 = 0.0465): 71.55 ± 0.32 | relative permittivity (308.15 K, x1 = 0.0988): 67.33 ± 0.29 | relative permittivity (308.15 K, x1 = 0.158): 62.78 ± 0.28 | relative permittivity (308.15 K, x1 = 0.226): 58.07 ± 0.25 | relative permittivity (308.15 K, x1 = 0.305): 53.43 ± 0.23 | relative permittivity (308.15 K, x1 = 0.397): 48.88 ± 0.21 | relative permittivity (308.15 K, x1 = 0.506): 44.99 ± 0.19 | relative permittivity (308.15 K, x1 = 0.637): 41.38 ± 0.18 | relative permittivity (308.15 K, x1 = 0.798): 37.85 ± 0.16 | relative permittivity (308.15 K, x1 = 1): 34.45 ± 0.15 | relative permittivity (313.15 K, x1 = 0.0465): 70.04 ± 0.31 | relative permittivity (313.15 K, x1 = 0.0988): 65.9 ± 0.29 | relative permittivity (313.15 K, x1 = 0.158): 61.26 ± 0.27 | relative permittivity (313.15 K, x1 = 0.226): 56.79 ± 0.25 | relative permittivity (313.15 K, x1 = 0.305): 52.28 ± 0.23 | relative permittivity (313.15 K, x1 = 0.397): 47.98 ± 0.21 | relative permittivity (313.15 K, x1 = 0.506): 44.12 ± 0.19 | relative permittivity (313.15 K, x1 = 0.637): 40.64 ± 0.18 | relative permittivity (313.15 K, x1 = 0.798): 37.11 ± 0.16 | relative permittivity (313.15 K, x1 = 1): 33.75 ± 0.15 | relative permittivity (318.15 K, x1 = 0.0465): 68.44 ± 0.3 | relative permittivity (318.15 K, x1 = 0.0988): 64.34 ± 0.28 | relative permittivity (318.15 K, x1 = 0.158): 59.91 ± 0.26 | relative permittivity (318.15 K, x1 = 0.226): 55.44 ± 0.25 | relative permittivity (318.15 K, x1 = 0.305): 51.18 ± 0.22 | relative permittivity (318.15 K, x1 = 0.397): 46.87 ± 0.21 | relative permittivity (318.15 K, x1 = 0.506): 43.18 ± 0.19 | relative permittivity (318.15 K, x1 = 0.637): 39.74 ± 0.17 | relative permittivity (318.15 K, x1 = 0.798): 36.29 ± 0.16 | relative permittivity (318.15 K, x1 = 1): 33.01 ± 0.14 | relative permittivity (323.15 K, x1 = 0.0465): 66.84 ± 0.29 | relative permittivity (323.15 K, x1 = 0.0988): 62.99 ± 0.28 | relative permittivity (323.15 K, x1 = 0.158): 58.6 ± 0.26 | relative permittivity (323.15 K, x1 = 0.226): 54.13 ± 0.24 | relative permittivity (323.15 K, x1 = 0.305): 49.99 ± 0.22 | relative permittivity (323.15 K, x1 = 0.397): 45.89 ± 0.2 | relative permittivity (323.15 K, x1 = 0.506): 42.28 ± 0.18 | relative permittivity (323.15 K, x1 = 0.637): 38.84 ± 0.17 | relative permittivity (323.15 K, x1 = 0.798): 35.39 ± 0.15 | relative permittivity (323.15 K, x1 = 1): 32.36 ± 0.14 | relative permittivity (328.15 K, x1 = 0.0465): 65.36 ± 0.29 | relative permittivity (328.15 K, x1 = 0.0988): 61.47 ± 0.27 | relative permittivity (328.15 K, x1 = 0.158): 57.29 ± 0.25 | relative permittivity (328.15 K, x1 = 0.226): 53.02 ± 0.23 | relative permittivity (328.15 K, x1 = 0.305): 48.92 ± 0.21 | relative permittivity (328.15 K, x1 = 0.397): 44.9 ± 0.2 | relative permittivity (328.15 K, x1 = 0.506): 41.38 ± 0.18 | relative permittivity (328.15 K, x1 = 0.637): 37.97 ± 0.17 | relative permittivity (328.15 K, x1 = 0.798): 34.82 ± 0.15 | relative permittivity (328.15 K, x1 = 1): 31.62 ± 0.14 | relative permittivity (333.15 K, x1 = 0.0465): 63.85 ± 0.28 | relative permittivity (333.15 K, x1 = 0.0988): 60.07 ± 0.26 | relative permittivity (333.15 K, x1 = 0.158): 55.97 ± 0.24 | relative permittivity (333.15 K, x1 = 0.226): 51.79 ± 0.22 | relative permittivity (333.15 K, x1 = 0.305): 47.94 ± 0.2 | relative permittivity (333.15 K, x1 = 0.397): 43.92 ± 0.18 | relative permittivity (333.15 K, x1 = 0.506): 40.52 ± 0.17 | relative permittivity (333.15 K, x1 = 0.637): 37.15 ± 0.15 | relative permittivity (333.15 K, x1 = 0.798): 34.08 ± 0.14 | relative permittivity (333.15 K, x1 = 1): 31.05 ± 0.13

Reference: the NIST ThermoML archive (doi:10.1021/je700055p)
